From patent US7776910B2, “Arylsulfonyl pyrrolidines as 5-HT6 inhibitors” (Roche Palo Alto LLC, priority 2006, dated 2010)
Structures can show the parent of a compound that is named as a salt.

Legend:
[1] = molecular target: T1, recombinant human 5-HT6 receptor (Homo sapiens, UniProt P50406); assay: Radioligand binding studies, 5-HT6 ligand affinity ([3H]LSD competition); details: [3H]LSD displacement, membranes of HEK293 cells expressing the receptor, pH 7.4, 37° C.; read-out: pKi for the 5-HT6 receptor (converted)
T1 construct: expressed in transfected cells
Procedure: (§1) This example illustrates in vitro radioligand binding studies of compound of formula I.
(§2) The binding activity of compounds of this invention in vitro was determined as follows. Duplicate determinations of 5-HT6 ligand affinity were made by competing for binding of [^3H]LSD in cell membranes derived from HEK293 cells stably expressing recombinant human 5-HT6 receptor. Duplicate determinations of 5-HT2A ligand affinity were made by competing for binding of [^3H]Ketanserin (3-(2-(4-(4-fluorobenzoyl)piperidinol)ethyl)-2,4(1H,3H)-quinazolinedione) in cell membranes derived from CHO-K1 cells stably expressing recombinant human 5-HT2A receptor. Membranes were prepared from HEK 293 cell lines by the method described by Monsma et al., Molecular Pharmacology, Vol. 43 pp. 320-327 (1993), and from CHO-K1 cell lines as described by Bonhaus et al., Br J. Pharmacol. June; 115(4):622-8 (1995).
(§3) For estimation of affinity at the 5-HT6 receptor, all determinations were made in assay buffer containing 50 mM Tris-HCl, 10 mM MgSO4, 0.5 mM EDTA, 1 mM ascorbic acid, pH 7.4 at 37° C., in a 250 microliter reaction volume. […]
(§4) Assay tubes containing [^3H] […] LSD or [^3H]Ketanserin were determined as radioactive counts per minute using Packard TopCount.
(§5) Displacement of [^3H]LSD or [^3H]Ketanserin from the binding sites was quantified by fitting concentration-binding data to a 4-parameter logistic equation: […]

[2] = molecular target: T2, recombinant human 5-HT2A receptor (Homo sapiens, UniProt P28223); assay: Radioligand binding studies, 5-HT2A ligand affinity ([3H]Ketanserin competition); details: [3H]Ketanserin displacement, membranes of CHO-K1 cells expressing the receptor, pH 7.4, 32° C.; read-out: pKi for the 5-HT2A receptor (converted)
T2 construct: expressed in transfected cells
Procedure: as §1, §2, §3, §4, §5

T2 sequence (P28223 whole entry): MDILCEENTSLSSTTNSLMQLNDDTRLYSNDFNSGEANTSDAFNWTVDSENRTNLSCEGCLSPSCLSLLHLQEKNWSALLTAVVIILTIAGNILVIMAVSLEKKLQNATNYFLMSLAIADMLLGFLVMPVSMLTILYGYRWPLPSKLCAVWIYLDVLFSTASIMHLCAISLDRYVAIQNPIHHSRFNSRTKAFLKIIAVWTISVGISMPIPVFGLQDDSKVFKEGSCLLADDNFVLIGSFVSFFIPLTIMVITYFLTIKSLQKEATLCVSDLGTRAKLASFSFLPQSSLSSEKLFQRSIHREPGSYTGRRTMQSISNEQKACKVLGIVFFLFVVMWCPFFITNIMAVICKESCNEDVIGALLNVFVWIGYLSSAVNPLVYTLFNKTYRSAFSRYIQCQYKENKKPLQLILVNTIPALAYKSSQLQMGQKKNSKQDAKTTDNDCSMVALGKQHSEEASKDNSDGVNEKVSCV
T1 sequence (P50406 whole entry): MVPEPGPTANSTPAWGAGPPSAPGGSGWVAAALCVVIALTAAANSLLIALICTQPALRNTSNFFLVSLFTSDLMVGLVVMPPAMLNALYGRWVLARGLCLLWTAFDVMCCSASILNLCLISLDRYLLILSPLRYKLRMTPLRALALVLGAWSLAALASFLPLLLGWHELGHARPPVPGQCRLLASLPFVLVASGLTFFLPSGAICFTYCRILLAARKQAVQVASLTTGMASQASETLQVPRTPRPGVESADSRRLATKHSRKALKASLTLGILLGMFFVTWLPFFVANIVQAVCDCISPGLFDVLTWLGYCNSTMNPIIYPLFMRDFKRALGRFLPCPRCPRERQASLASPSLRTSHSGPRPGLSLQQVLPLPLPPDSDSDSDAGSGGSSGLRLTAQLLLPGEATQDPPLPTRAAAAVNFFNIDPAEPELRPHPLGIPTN

| SMILES | melting point [°C] | further results |
| --- | --- | --- |
| CCS(=O)(=O)c1cccc(S(=O)(=O)c2ccc(C3CCNC3)c(O)c2)c1 (centres unmarked) (as salt: HCl) [Compound 20, 5-(3-Ethanesulfonyl-benzenesulfonyl)-2-pyrrolidin-3-yl-phenol] | 124.5 to 126.7 | – |
| Cc1cc(S(=O)(=O)c2ccc(O)c(Cl)c2)ccc1C1CCNC1 (centres unmarked) (as salt: HCl) [Compound 32, 2-Chloro-4-(3-methyl-4-pyrrolidin-3-yl-benzenesulfonyl)-phenol] | 110 to 112.9 | – |
| O=S(=O)(c1cccc(F)c1)c1ccc([C@@H]2CCNC2)c(O)c1 (as salt: HCl) [Compound 35, 5-(3-Fluoro-benzenesulfonyl)-2-(S)-pyrrolidin-3-yl-phenol] | 239 to 241 | – |
| Cc1cc(S(=O)(=O)c2ccc(O)cc2)ccc1C1CCN(C)C1 (centres unmarked) (as salt: HCl) [Compound 51, 4-[3-Methyl-4-(1-methyl-pyrrolidin-3-yl)-benzenesulfonyl]-phenol] | 186 to 187.5 | – |
| CN1CC[C@@H](c2ccc(S(=O)(=O)c3ccc(O)cc3)cc2F)C1 [4-[3-Fluoro-4-(1-methyl-(S)-pyrrolidin-3-yl)-benzenesulfonyl]-phenol] | – | Ki [1]: ~0.1 nM |
| CCSc1cccc(S(=O)(=O)c2ccc(C3CCNC3)c(O)c2)c1 (centres unmarked) [5-(3-Ethylsulfanyl-benzenesulfonyl)-2-pyrrolidin-3-yl-phenol] | – | Ki [2]: ~0.891 nM |
| Cc1cc(S(=O)(=O)c2ccc(O)c(C(C)C)c2)ccc1C1CCNC1 (centres unmarked) [Compound 85, 2-Isopropyl-4-(3-methyl-4-pyrrolidin-3-yl-benzenesulfonyl)-phenol] | 125 to 128 | – |
| Cc1cc(S(=O)(=O)c2ccccc2)ccc1[C@@H]1CCN(S(C)(=O)=O)C1 [Compound 115, 3-(4-Benzenesulfonyl-2-methyl-phenyl)-1-methanesulfonyl-(S)-pyrrolidine] | 56 to 58 | – |
